Data taken from patent US4575459A, “Toxoids of elastase of Pseudomonas aeruginosa origin” (Toho Yakuhin Kogyo Kabushiki Kaisha, priority 1984, dated 1986).
Several values for one entry are separate records, joined by “and”; a condition that tells them apart may be missing. Equal values may be shown once.

Legend:
[1] = tested on: Pseudomonas aeruginosa elastase; conditions: incubation of the reagent with the enzyme; Nishino and Powers, J. Biol. Chem. (1980); cited from earlier work
Casein = assay: Proteinase activity on casein (Folin's method), specific activity in mPU; type: biochemical
Protocol: In Examples 1 and 2, the term "mPU/ml protein of a specific activity" signifies the proteinase activity determined by the following procedure:
Casein (2%, pH 7.4, 1 ml) is admixed with 1 ml of an appropriately diluted solution of an enzyme, and after a reaction at 40° C. for 10 minutes, 2.0 ml of a solution containing 0.1M trichloroacetic acid and 0.2M sodium acetate is immediately added for stopping a progress of the reaction. The mixture is kept at the same temperature for 20 minutes to precipitate unreacted casein completely and is filtered. 1 ml of the filtrate is subject to determination of tyrosine therein contained by the Folin's method. By the increase of 1γ of tyrosine per 1 minute, a proteinase activity of 1 mPU is to be indicated. 1 mPU×1,000 is equal to 1 PU.

[2] = Antigenic activity listed among the identified properties of the toxoids; conditions: listed property
ddY mice [3] = assay: PHA value on mice; type: in vivo, mouse; conditions: 50 μg with potassium alum three times, first and second collected bloods (just before and 14th day after third inoculation)
Protocol: (§1) The values were determined according to a method described by one of the present inventors, Y. Homma, in The Japan J. Exp. Med., Vol. 45, No. 5, pages 361-365 (1975), and the values were expressed as a reciprocal number to a multiplied number of the dilution of sera.
(§2) To a solution of Toxoid I of this invention in a concentration of 0.5 mg/ml., an equal volume of 1% potassium alum solution was added. Each 0.2 ml of the solution, in which 50 μg of Toxoid I were contained, were inoculated into ddY mice of 4 weeks old respectively three times at an interval of 2 weeks. At just before and on the 14th day after the third inoculation, bloods were collected from each mouse and the values of PHA and elastase-neutralizing activity were inspected in the same manner as with Tests A and C in Experiment 1.

ddY mice [4] = assay: Elastase-neutralizing activity on mice; type: in vivo, mouse
Protocol: (§3) Sera of the tested rabbits were warmed at 56° C. for 30 minutes and 0.2 ml of the sera were added to 0.2 ml of elastase solution, to which normal saline solution was added up to a volume of 2 ml in total. The solution was left for 60 minutes at 37° C., then, 1 ml of 2% casein solution was added to 1 ml of the solution. The residual elastase activity was determined with the thus mixed solution.
as §2

rabbits [5] = assay: Antigenicity test on rabbits, Test B: precipitation in agar-gel test; type: in vivo, rabbit; conditions: 22° C., 24 hours, dilution at which precipitation line first becomes observable, individual rabbits
Protocol: (§4) Method: Three rabbits, each having 2.5 Kg of a body weight, were subcutaneously inoculated with each 1 mg of Toxoid I together with Freund's incomplete adjuvant and the inoculation was repeated 3 to 4 times at an interval of 2 weeks. On the day of two weeks after the last inoculation, blood was collected from the rabbits and was availed for following Tests A, B and C. The same method as the preceeding was conducted employing Toxoid II.
In 0.01M phosphate buffer-normal saline solution (pH 7.0) which contained 0.1% of sodium azide, agarose was dissolved to form a concentration of 1.5% by weight, and 10 ml of the solution were poured in a dish having 9 cm of a diameter and the solution was left to make the agar hard. Several holes were made on the hardened agar and antigens or antisera were separately poured into every hole and the agar was left at 22° C. for 24 hours long, then, the existence of a precipitation line was inspected. The concentration of antigens is expressed by a unit of μg/ml, wherein the numerator indicates a quantity of antigens and a denominator indicates the dilution volume which is required until a precipitation line will first becomes observable.

rabbits [6] = assay: Antigenicity test on rabbits, Test A: passive hemagglutinative value test (PHA test); type: in vivo, rabbit; conditions: reciprocal of serum dilution; individual rabbits, 1 mg s.c. with Freund's incomplete adjuvant 3 to 4 times, blood two weeks after last inoculation
Protocol: as §4, §1

rabbits [7] = assay: Antigenicity test on rabbits, Test C: elastase-neutralizing activity test of sera; type: in vivo, rabbit; conditions: elastase activity neutralized by 1 ml of anti-serum; individual rabbits
Protocol: as §4, §3

[8] = Antigenic activity of formalin-treated elastase samples by precipitation line (Table 1); type: binding; conditions: quantity of antigen per dilution volume until a precipitation line first becomes visible; larger numeral = less potent
Description: Note: In the above Table 1, the antigenic activity is expressed by a unit of μg/ml, wherein the numerator indicates the quantity of antigen and the denominator indicates the dilution volume required until a precipitation line first becomes visible.

Row | Compound | effect on enzyme activity of elastase [1] | specific activity (Casein; casein 2%, pH 7.4, 40° C., 10 minutes) | Enzymatic activity (Casein; listed property) | Antigenic activity [2] | PHA Value (ddY mice [3]) | elastase-neutralizing activity (ddY mice [4]; first collected blood (just before third inoculation)) | elastase-neutralizing activity (ddY mice [4]; second collected blood (14th day after third inoculation)) | Antigen Concentration (rabbits [5]) | PHA Value (rabbits [6]) | Elastase-neutralizing Activity (mPU/ml) (rabbits [7]) | Residual Proteinase Activity (%) (Casein; elastase samples treated with formalin (HCHO), Table 1) | Antigenic activity [8]
1 | CC(C)C[C@@H](C(=O)N[C@@H](C)C(=O)NCC(N)=O)N(O)C(=O)CCl [Powers Reagent, chloroacetyl-N-hydroxy-L-leucyl-L-alanylglycinamide] | progressive loss of enzyme activity |  |  |  |  |  |  |  |  |  |  | 
2 | Toxoid I: toxoid prepared by inactivating Pseudomonas aeruginosa elastase with the Powers Reagent |  | 0.06 mPU/mg protein | Negative | Positive | 640 | 1.52 mPU/ml | 1.83 mPU/ml | 15 µg/mL | 5120 and 2560 | 15 mPU/ml and 12 mPU/ml and 10 mPU/ml |  | 
3 | crystalline elastase: purified crystalline elastase obtained from Pseudomonas aeruginosa, raw material of the toxoids |  |  |  |  |  |  |  | 15 µg/mL |  |  | 100% | 30 µg/mL
